# Measurements reported in the supplement of paper PMC3937590.
# Key:
# Test in all cases: -log10 GI50 (growth inhibition 50%) (-log10(M)); higher = more potent growth inhibition
# HCC1143 = tested on: HCC1143
# Outline: (§1)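 A value carrying a < qualifier equals the top dose tested. Each compound was tested in triplicate on breast cancer cell lines for 72 hours at nine doses in 1:5 serial dilution, using a luminescence read-out against a time-zero plate. Nonlinear least squares fitting of a Gompertz curve gave GI50, the molar concentration causing the set level of growth inhibition, which is reported as its negative logarithm. The logarithm is base 10.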
# HCC1428 = tested on: HCC1428
# Outline: as §1
# ZR751 = tested on: ZR751
# Outline: as §1
# HBL100 = tested on: HBL100
# Outline: as §1
# BT20 = tested on: BT20
# Outline: as §1
# HCC1806 = tested on: HCC1806
# Outline: as §1
# BT483 = tested on: BT483
# Outline: as §1
# HCC202 = tested on: HCC202
# Outline: as §1
# SUM225CWN = tested on: SUM225CWN
# Outline: as §1
# HCC3153 = tested on: HCC3153
# Outline: as §1
# SKBR3 = tested on: SKBR3
# Outline: as §1
Compound,-log10 GI50 (HCC1143),-log10 GI50 (HCC1428),-log10 GI50 (ZR751),-log10 GI50 (HBL100),-log10 GI50 (BT20),-log10 GI50 (HCC1806),-log10 GI50 (BT483),-log10 GI50 (HCC202),-log10 GI50 (SUM225CWN),-log10 GI50 (HCC3153),-log10 GI50 (SKBR3)
CNC(=O)c1c(F)cccc1Nc1nc(Nc2cc3c(cc2OC)CCN3C(=O)CN(C)C)nc2[nH]ccc12,5.56,5.79,5.17,4.76,4.86,4.09,5.49,5.05,4.9,5.39,4.99
COc1cc2c(Nc3ccc(NC(=O)c4ccccc4)cc3)ncnc2cc1OCCCN1CCOCC1,6.07,4.56,5.47,,5.33,< 4,4.56,,4.98,< 4,4.76
COc1ncc(-c2ccc3nccc(-c4ccnnc4)c3c2)cc1NS(=O)(=O)c1ccc(F)cc1F,7.43,7.57,8.09,,7.8,7.54,8.94,9.25,8.79,7.38,8.41
Nc1[nH]nc2nnc(-c3c(-c4ccccc4)nn4ccccc34)cc12,4.6,4.56,5.23,,4.55,,4.45,,4.62,< 4.48,< 4
O=C(O)c1ccc(-c2c[nH]c3ncc(-c4ccccc4)cc23)cc1C1CCCC1,< 4.18,< 4.18,< 4.18,,< 4.48,< 4.18,< 4.48,,,< 4.48,< 4.48
O=C1C(Cl)=C(NCCN2CCOCC2)C(=O)c2ncccc21,5.7,5.44,5.76,,5.49,5.61,6.19,,5.64,5.64,5.86
Oc1cc(-c2nc(-c3ccccc3)[nH]c2-c2ccncc2)ccc1Cl,4.39,4.97,4.59,,4.62,4.9,4.84,,5.15,< 4.48,4.66
Cn1cnc2c(F)c(Nc3ccc(Br)cc3Cl)c(C(=O)NOCCO)cc21 [AZD6244],< 4.3,< 4.3,4.75,,< 4.3,< 4.3,< 4.3,,< 4.3,< 4.3,< 4.3
O=c1[nH]c2ccccc2n1C1CCN(Cc2ccc(-c3[nH]c4cc5ncnc5cc4nc3-c3ccccc3)cc2)CC1 [Akt inhibitor VIII],4.87,5.35,6.13,,5.09,5.05,6.2,,6.16,5.01,5.68
Cn1c(=O)n(-c2ccc(C(C)(C)C#N)cc2)c2c3cc(-c4cnc5ccccc5c4)ccc3ncc21 [BEZ235],< 4.48,5.51,5.74,,5.6,< 4.48,5.87,,6.68,6.19,< 4.48
CN(C)C/C=C/C(=O)Nc1cc2c(Nc3ccc(F)c(Cl)c3)ncnc2cc1O[C@H]1CCOC1 [BIBW2992],5.86,5.76,5.63,,5.56,6.27,5.78,,8.03,,7.88
O=c1cc(-c2ccccc2)oc2cc(O)c(O)c(O)c12 [Baicalein],4.15,4.41,4.38,,4.05,4.73,4.44,4.41,4.43,4.69,3.96
CC(C)C[C@H](NC(=O)[C@H](Cc1ccccc1)NC(=O)c1cnccn1)B(O)O [Bortezomib],8.12,7.28,7.55,7.35,7.33,7.59,7.44,8.14,8,7.9,7.88
COc1cc(Nc2c(C#N)cnc3cc(OCCCN4CCN(C)CC4)c(OC)cc23)c(Cl)cc1Cl [Bosutinib],5.31,5.43,4.94,,5.89,5.69,5.43,,5.81,5.18,5.41
C#Cc1cccc(Nc2ncnc3cc(OCCOC)c(OCCOC)cc23)c1 [Erlotinib],4.24,4.75,< 4.18,< 4.18,5.7,5.37,4.78,5.57,4.89,4.51,4.8
COc1cc([C@@H]2c3cc4c(cc3[C@@H](O[C@@H]3O[C@@H]5CO[C@@H](C)O[C@H]5[C@H](O)[C@H]3O)[C@H]3COC(=O)[C@H]23)OCO4)cc(OC)c1O [Etoposide],5.29,4.47,5.68,5.67,5.48,5.51,5.37,6.03,4.99,5.57,5.92
CSCC[C@H](NC(=O)[C@H](Cc1ccccc1)NC[C@@H](NC[C@@H](N)CS)C(C)C)C(=O)O [FTase inhibitor I],< 4.48,< 4.48,< 4.18,,< 4.48,< 4.48,< 4.48,,4.49,< 4.48,< 4.48
Cc1cncc2cccc(S(=O)(=O)N3CCCN(C(=O)CN)C[C@@H]3C)c12 [Glycyl H1152],5.05,< 4.18,4.81,,5.18,< 4.18,,,< 4.18,< 4.48,4.33
O=C(c1ccc(Nc2nccc(-c3cc4ccccc4s3)n2)cc1)N1CCC(N2CCCC2)CC1 [IKK 16],5.3,5.4,5.29,,5.42,5.99,,5.1,5.51,5.48,5.53
CCCCCN(C)CCC(O)(P(=O)(O)O)P(=O)(O)O [Ibandronate sodium],4.38,3.89,4.16,,4.69,4.44,4.24,,3.3,4.05,4.05
